From PMC7762994 (Viruses, 2020)
Like-named read-outs stand apart in the source and are kept apart here.

How the values were obtained:
[1] = tested on: Hazara virus (HAZV); assay: microbe, parasite or virus in culture; assay type: cell-based; conditions: SW13, 24 h; for inhibition at 10 µM: read-out: Viral inhibition on primary infection (%)
[2] = Viability of SW13 cells by nuclei count in the HAZV antiviral assay; assay type: cell-based; conditions: human, SW13 cells inoculated with HAZV; SW13 cells, nuclei count relative to DMSO, 10 μM, 24 h
[3] = tested on: SW13 cells; assay: as above; assay type: cell-based; conditions: Homo sapiens
[4] = tested on: Hazara virus (HAZV); assay: microbe, parasite or virus in culture; assay type: cell-based
[5] = biological target: OGG1 (Homo sapiens, UniProt O15527); assay: In vitro OGG1 activity assay; assay type: biochemical; conditions: for OGG1 activity (in words): Figure 3A
[6] = tested on: SARS-CoV-2; assay type: cell-based
[7] = tested on: CoV 229E; assay: CoV 229E titer in Huh7 cells, end-point dilution assay; assay type: cell-based, Coronavirus 229E; conditions: MOI 5, 10 µM, 24 h
[8] = tested on: EBOV; assay type: cell-based, Sudan Ebolavirus; conditions: Vero cells, MOI 0.5, 10 µM, 48 h
[9] = tested on: CCHFV; assay type: cell-based, Crimean-Congo hemorrhagic fever virus; conditions: Vero cells, MOI 1, 10 µM, 48 h
[10] = tested on: Huh7 cells; assay: Cell viability, resazurin assay; assay type: cell-based; conditions: Huh7 cells, 24, 48 or 72 h
[11] = tested on: Vero cells; assay: Cell viability, MTT assay; assay type: cell-based; conditions: 48 h

Chain of OGG1 (O15527 whole entry): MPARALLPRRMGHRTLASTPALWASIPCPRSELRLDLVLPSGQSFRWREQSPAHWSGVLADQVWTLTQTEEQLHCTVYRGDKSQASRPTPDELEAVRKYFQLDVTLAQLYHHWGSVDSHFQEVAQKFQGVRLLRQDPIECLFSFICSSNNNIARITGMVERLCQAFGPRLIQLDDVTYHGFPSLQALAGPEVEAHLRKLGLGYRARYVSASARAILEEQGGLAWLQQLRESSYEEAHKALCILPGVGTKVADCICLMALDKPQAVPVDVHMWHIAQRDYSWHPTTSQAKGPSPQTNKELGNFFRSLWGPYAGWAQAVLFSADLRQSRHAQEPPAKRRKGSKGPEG

Q: With `O=C(Nc1ccc(I)cc1)N1CCC(n2c(=O)[nH]c3cc(Cl)ccc32)CC1` [TH3289] as the compound, how does the IC50 ([1]; read-out: Antiviral on primary infection IC50 [µM]) read?
A: The IC50 was 18.7 µM.

Q: What about the EC50 ([1]; read-out: EC50 Infected cells (primary infection)) of the same compound?
A: Its EC50 is 18.7 µM.

Q: And the inhibition at 10 µM [1]?
A: Its inhibition at 10 µM is 58%.

Q: And the viability at 24 h, 10 µM [2]?
A: Its viability at 24 h, 10 µM is 77%.

Q: What about the EC50 ([3]; SW13, 24 h, read-out: EC50 Living cells) of the same compound?
A: The EC50 was 46.5 µM.

Q: What about the EC50 ([3]; HAZV, SW13, MOI 1, 24 h, read-out: Viability (nuclei count) EC50) of the same compound?
A: The EC50 was 47.5 µM.

Q: And the IC50 ([4]; Hazara virus, SW13, 24 h, read-out: Antiviral on titer (µM) IC50 [µM])?
A: Its IC50 is 14.7 µM.

Q: What about the EC50 ([4]; Hazara virus, SW13, read-out: EC50 Viral titer) of the same compound?
A: The EC50 was 14.7 µM.

Q: And the inhibition at 10 µM ([4]; Hazara virus, Vero, 24 h, read-out: Viral inhibition on titer (%))?
A: Its inhibition at 10 µM is 95%.

Q: And the “reduction of HAZV titer” value ([4]; SW13 cells, MOI 1, 10 µM, 24 h)?
A: Its value is 94%.

Q: And the “OGG1 activity (in words)” value [5]?
A: Its value is “Micromolar OGG1activity”.

Q: And the “reduction of SARS-CoV-2 titer” value [6]?
A: The value was 58%.

Q: And the “reduction of CoV 229E titer” value [7]?
A: The value was 84%.

Q: What about the “reduction of EBOV viral titer” value [8] of the same compound?
A: The value was 40%.

Q: And the “reduction of CCHFV viral titer” value [9]?
A: Its value is 70%.

Q: What about the “toxicity profile, cellular viability by resazurin assay” value [10] of the same compound?
A: Its value is “favourable toxicity profile”.

Q: What about the “toxicity profile, viability by MTT assay” value [11] of the same compound?
A: Its value is “favourable toxicity profile”.

Q: Which results are given for `O=C(Nc1ccc(I)cc1)N1CCC(c2c[nH]c3ccccc23)CC1` [TH4448, 4‐(1H‐indol‐3‐yl)‐N‐(4‐iodophenyl)piperidine‐1‐carboxamide]?
A: inhibition at 10 µM [1]: 98%; viability at 24 h, 10 µM [2]: 82%; IC50 [5]: > 99 µM; OGG1 activity (in words) [5]: No OGG1 activity

Q: With `NC(=O)c1ncn([C@@H]2O[C@H](CO)[C@@H](O)[C@H]2O)n1` [Ribavirin, reference compound] as the compound, how does the “reduction of HAZV viral titer” value ([4]; 100 µM, positive control) read?
A: Its value is 98%.
